Assay results as given in paper PMC6737244, “Cathelicidin Peptides Restrict Bacterial Growth via Membrane Perturbation and Induction of Reactive Oxygen Species” (mBio, 2019).
Ends that are not written are not given here.

Assays:
P. aeruginosa biofilms = test: Established biofilm in flow cell, LIVE/DEAD staining; settings: 100 nM
V. cholerae = test: CellROX ROS production, single-cell imaging; type: cell-based, Vibrio cholerae; settings: 100 nM, 2.5 μM CellROX
From the text: The assortment of E. coli genes that were differentially expressed after peptide treatment led us to suspect that B22a induced oxidative stress. Oxidative stress is often transient and challenging to detect due to a suite of enzymes in bacterial cells that can rapidly reduce oxidative species. We monitored the real-time accumulation of ROS in single cells of V. cholerae in the presence of CellROX, a cell-permeable redox dye that reacts with O2^– and ^·OH ([30]). CellROX is nonfluorescent in the reduced state, but upon oxidation, it binds double-stranded DNA and fluoresces strongly. Images were captured at 15-s intervals over 40 min, twice the doubling time of V. cholerae under these conditions. […] The number of fluorescent cells increased following treatment with 25, 50, or 100 nM B22 or B22a (Fig. S4), and a fluorescence burst due to the oxidation of CellROX was observed within 15 s of B22 treatment (Fig. 7A, bottom). The signal intensity peaked over the next 30 s and then dissipated after about 1 min. The loss in fluorescence intensity was followed by an abrupt shortening in cell length, a dramatic decrease in cell contrast, and bleb formation roughly 45 s later.

E. coli = test: Single-cell division time, time-lapse phase-contrast microscopy; type: cell-based, Escherichia coli; settings: 30 nM, first three generations
Description: To confirm that sublethal levels of cathelicidins affected the growth of Gram-negative bacteria, the division of single cells of E. coli and E. cloacae was monitored. Cells were seeded into microfluidic chambers and grown under continuous flow, and time-lapse phase-contrast microscopy was used to record the cell division time in the presence or absence of B22a.
Imaging of individual cells was conducted using the CellAsic microfluidic perfusion system (ONIX) with integrated temperature controller and B04A bacterial microfluidic plates (EMD Millipore, Billerica, MA). The CellAsic ONIX FG software (v 5.0.2.0) was used to control flow rate and deliver fresh medium with or without antimicrobial peptide (AMP). The chambers were loaded by perfusion of 50 μl of a 10^6 cells/ml bacterial suspension at 2 lb/in^2 for 15 s to prime the cells followed by 4 lb/in^2 for 15 s to trap the cells. The chamber was then rinsed at 1 lb/in^2 for 30 s followed by 5 lb/in^2 for 5 min. To quickly switch solutions, medium was perfused at 10 lb/in^2 for 10 s, and then flow was reduced to 2 lb/in^2 for the remainder of the imaging.

Question: FRKKLKKLFKKLSPVIPLLKLG [B22] was tested. Which “Drop in biofilm biomass” value (P. aeruginosa biofilms; 4-h period, continuous flow) did it give?
Answer: 50%

Question: What about the “Cell death in biofilm (spike)” value (P. aeruginosa biofilms; after 1 h) of the same substance?
Answer: > 50

Question: And the “Time to fluorescence burst due to oxidation of CellROX” value (V. cholerae)?
Answer: ≤ 15 s

Question: With FRKKLKKLFKKLSPVIPLLKLG-NH2 [B22a] as the substance, how does the Cell division time (E. coli) read?
Answer: increased twofold
